Source: patent US20240207403A1, “PERSONALIZED IMMUNOTHERAPY USING INTESTINAL METABOLITES” (Evolve Biosystems, Inc., priority 2021, published 2024)

Assays:
naïve CD4+ T-cells = assay: In vitro polarization of naïve CD4+ T-cells with fecal water, ILA or IFNβ, read out by targeted sc-mRNA-seq; assay type: cell-based, human; conditions: for LGALS1 (Galectin-1) in Th0, Th2 and Th17 cells: ILA alone (1 mM) during polarization
Experimental: To evaluate the cellular states of polarized T-cells, the inventors applied a targeted multiomics approach quantifying 259 mRNA molecules with known functions in T-cells and 10 surface proteins detected by oligo-coupled antibodies (Abseq™, Rhapsody™, BD Biosciences) (Mair et al., 2020).
T-cell polarization experiments. PBMC derived CD3 CD4 CD45RA″ naïve T-cells (CD8/14/19/56 negative) into an enriched culture medium including RPMI 1640+10% FBS+NEAA+1% Pen-strep+55 μM β-mercaptoethanol. Cells are added at a concentration of 2×10^5 cells/ml and pre-washed and resuspended 2.5 ml T-Activator Dynabeads are added to obtain a bead:cell ratio of 1:2. One milliliter of bead/cell suspension was added to 24-well plate and the following polarizing supplements Th0: No cytokines, Th1: IL-12 (50 nanogram (ng)/ml), Anti-human IL-4 antibody (1 μg/ml) Th2: IL-4 (10 ng/ml), Anti-human IFN-γ antibody (1 μg/ml), Th17: IL-6 (50 ng/ml), IL-23 (20 ng/ml), IL-1B (10 ng/ml), TGF-β1 (5 ng/ml), Anti-hum IL-4 (1 μg/ml), Anti-human IFN-γ antibody (1 μg/ml), iTreg: TGF-β1 (5 ng/ml), IL-2 (10 ng/ml) IFN-β: IFN-β (10 ng/ml). Cells are incubated at 37 °C, 5% CO2 humidified incubator for 5 days and harvested.
Targeted transcriptome and protein by BD Rhapsody single cell RNA Sequencing. Polarized T cells in each condition were labeled using BD Single-Cell Multiplexing Kit and BD AbSeq Ab-Oligos reagents strictly following the manufacturers protocol (BD Biosciences). Briefly, cells from each experiment condition were labelled with each sample tag and pooled 18 AbSeqAb-Oligos. Each sample was then washed twice, counted and resuspended in cold BD SampleBuffer, then calculated the cell number in each sample, then pooled the required number of cells from each sample to get approximately 20,000 cells in 620 μl for each cartridge (around 9 samples for each cartridge). After priming the nanowell cartridges, the pooled sample was loaded onto BDRhapsody cartridges and incubated at room temperature. Cell Capture Beads were prepared and then loaded onto the cartridge. According to the manufacturers protocol, cartridges were washed, cells were lysed, and Cell Capture Beads were retrieved and washed prior to performing reverse transcription and treatment with Exonuclease I. cDNA Libraries were prepared using mRNA Targeted, Sample Tag, and BD AbSeq Library Preparation with the BD Rhapsody Targeted mRNA and AbSeq Amplification Kits and protocol. […] Quality and quantity of PCR products were determined by using an Agilent 2100 Bioanalyzer and Qubit Fluorometer using the Qubit dsDNA HS Kit (ThermoFisher). […] Quality of final libraries was assessed by using Agilent Bioanalyzer and quantified using a Qubit Fluorometer. […]

[1] = tested on: Aryl hydrocarbon Receptor (AhR); conditions: bifidobacteria-derived ILA; cited from earlier work
[2] = target: hydrocarboxylic acid receptor 3 (HCAR3) (Homo sapiens, UniProt P49019); conditions: bifidobacteria-derived ILA; cited from earlier work
Sequence of hydrocarboxylic acid receptor 3 (HCAR3) (P49019 whole entry): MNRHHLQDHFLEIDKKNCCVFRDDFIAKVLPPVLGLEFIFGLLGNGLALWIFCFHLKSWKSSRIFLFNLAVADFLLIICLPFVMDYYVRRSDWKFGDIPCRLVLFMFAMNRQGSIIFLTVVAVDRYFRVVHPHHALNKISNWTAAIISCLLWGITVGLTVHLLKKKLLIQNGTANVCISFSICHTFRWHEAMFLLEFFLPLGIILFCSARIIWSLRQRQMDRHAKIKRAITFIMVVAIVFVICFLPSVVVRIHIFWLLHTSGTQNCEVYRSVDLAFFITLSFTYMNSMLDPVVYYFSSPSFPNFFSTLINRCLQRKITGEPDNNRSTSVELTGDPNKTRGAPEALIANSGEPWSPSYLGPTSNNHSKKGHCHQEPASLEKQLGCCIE

[3] = ILA alone (1 mM) instead of fecal water

O=C(O)C(O)Cc1c[nH]c2ccccc12 (stereo not drawn) [ILA, Indole-3-lactic acid]
LGALS1 (Galectin-1) in Th0, Th2 and Th17 cells (naïve CD4+ T-cells): strongly upregulated
LGALS1 (Galectin-1) in Th0, Th2 and Th17 cells (naïve CD4+ T-cells; listed as indole-3-lactic acid): upregulated
CXCR3 mRNA in Th0, Th2 and Th17 cells (naïve CD4+ T-cells; [3]): upregulated
granzyme B mRNA in Th0, Th2 and Th17 cells (naïve CD4+ T-cells; [3]): upregulated
binding to AhR [1]: bind
binding to HCAR3 [2]: bind
